Target: T1, human PTHR1 receptor (Homo sapiens, UniProt Q03431)
T1 construct: purchased Eurofins HTS030M
T1 sequence (Q03431 27-593): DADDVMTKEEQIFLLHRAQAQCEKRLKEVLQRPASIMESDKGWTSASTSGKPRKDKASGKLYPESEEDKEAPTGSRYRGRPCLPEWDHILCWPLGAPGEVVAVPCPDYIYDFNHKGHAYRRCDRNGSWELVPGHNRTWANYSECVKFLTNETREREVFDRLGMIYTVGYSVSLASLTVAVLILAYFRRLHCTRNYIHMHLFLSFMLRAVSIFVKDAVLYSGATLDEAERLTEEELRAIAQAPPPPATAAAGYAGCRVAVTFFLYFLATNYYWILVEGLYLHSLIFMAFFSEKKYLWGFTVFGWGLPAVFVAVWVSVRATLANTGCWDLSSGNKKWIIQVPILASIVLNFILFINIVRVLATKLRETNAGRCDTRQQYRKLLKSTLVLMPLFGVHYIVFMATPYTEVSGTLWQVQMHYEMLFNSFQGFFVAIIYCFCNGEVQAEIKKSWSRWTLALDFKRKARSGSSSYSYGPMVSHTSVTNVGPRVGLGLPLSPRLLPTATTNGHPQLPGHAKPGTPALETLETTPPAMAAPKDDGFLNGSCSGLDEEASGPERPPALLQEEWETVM
Assay: Competitive antagonist binding assay for hPTH-R1 (radioactive competition binding, SPA beads)
Details: human PTHR1 membranes, [125I]-[Nle8,18,Tyr34]-PTH(1-34) 0.2 nM, 90 minutes at room temperature; read-out: hPTHR1 Ki
How it was run: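 Displacement of 0.2 nM radioiodinated [Nle8,18,Tyr34]-PTH(1-34) from membrane-bound human PTHR1 measured by scintillation proximity after 90 min at room temperature. Compounds typically 0-10,000 nM final, pH 7.4 HEPES/Mg/Ca buffer with BSA and detergent. Ki calculated from competition data.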

| Molecule | Ki [nM] |
| --- | --- |
| CCN1C(=O)N(c2c(F)cc(NCCNCCO)cc2F)c2cc(C#N)ncc2-c2cc(F)cnc21 [3-12, 8-[2,6-difluoro-4-({2-[(2-hydroxyethyl)amino]ethyl}amino)phenyl]-10-ethyl-14-fluoro-9-oxo-4,8,10,12-tetraazatricyclo[9.4.0.0^2,7]pentadeca-1(11),2(7),3,5,12,14-hexaene-5-carbonitrile] | < 100 |
| 4-chloro-10-(2,6-difluoro-4-{[2-(methylamino)ethyl]amino}phenyl)-8-methyl-9-oxo-6,8,10-triazatricyclo[9.4.0.0^2,7]pentadeca-1(11),2(7),3,5,12,14-hexaene-13-carbonitrile [1-211] | < 100 |
| CCN1C(=O)N(c2c(F)cc(N3CC(N)C3)cc2F)c2cc(Cl)ccc2-c2cc(Cl)cnc21 [1-44, 10-[4-(3-aminoazetidin-1-yl)-2,6-difluorophenyl]-4,13-dichloro-8-ethyl-6,8,10-triazatricyclo[9.4.0.0^2,7]pentadeca-1(11),2(7),3,5,12,14-hexaen-9-one] | < 100 |
| CCN1C(=O)N(c2c(F)cc(NCCN[C@H]3C[C@H](O)C3)cc2F)c2cc(C#N)ccc2-c2cc(Cl)cnc21 [1-187, 4-chloro-10-{2,6-difluoro-4-[(2-{[(1r,3r)-3-hydroxycyclobutyl]amino}ethyl)amino]phenyl}-8-ethyl-9-oxo-6,8,10-triazatricyclo[9.4.0.0^2,7]pentadeca-1(11),2(7),3,5,12,14-hexaene-13-carbonitrile] | < 100 |
| CCN1C(=O)N(c2c(F)cc(NCCNC3CCOCC3)cc2F)c2cc(Cl)ccc2-c2cccnc21 [1-4, 13-chloro-10-[2,6-difluoro-4-({2-[(oxan-4-yl)amino]ethyl}amino)phenyl]-8-ethyl-6,8,10-triazatricyclo[9.4.0.0^2,7]pentadeca-1(11),2(7),3,5,12,14-hexaen-9-one] | < 100 |
| CCN1C(=O)N(c2c(F)cc(NCCNCCO)cc2F)c2cc(Cl)cc(C)c2-c2cc(F)cnc21 [1-31, 13-chloro-10-[2,6-difluoro-4-({2-[(2-hydroxyethyl)amino]ethyl}amino)phenyl]-8-ethyl-4-fluoro-15-methyl-6,8,10-triazatricyclo[9.4.0.0^2,7]pentadeca-1(11),2(7),3,5,12,14-hexaen-9-one] | < 100 |
| CCN1C(=O)N(c2c(F)cc(NCCNCCCC(=O)O)cc2F)c2c(ccc(Cl)c2F)-c2cc(Cl)cnc21 [3-11, 4-({2-[(4-{4,13-dichloro-8-ethyl-12-fluoro-9-oxo-6,8,10-triazatricyclo[9.4.0.0^2,7]pentadeca-1(11),2(7),3,5,12,14-hexaen-10-yl}-3,5-difluorophenyl)amino]ethyl}amino)butanoic acid] | < 100 |
| CCN1C(=O)N(c2c(F)cc(NCCN[C@@H](C)CO)cc2F)c2cc(C#N)ccc2-c2cc(F)cnc21 [1-213, 10-{2,6-difluoro-4-[(2-{[(2S)-1-hydroxypropan-2-yl]amino}ethyl)amino]phenyl}-8-ethyl-4-fluoro-9-oxo-6,8,10-triazatricyclo[9.4.0.0^2,7]pentadeca-1(11),2(7),3,5,12,14-hexaene-13-carbonitrile] | < 100 |
| CCN1C(=O)N(c2c(F)cc(NCCNC)cc2F)c2cc(Cl)cc(F)c2-c2cc(Cl)cnc21 [1-61, 4,13-dichloro-10-(2,6-difluoro-4-{[2-(methylamino)ethyl]amino}phenyl)-8-ethyl-15-fluoro-6,8,10-triazatricyclo[9.4.0.0^2,7]pentadeca-1(11),2(7),3,5,12,14-hexaen-9-one] | < 100 |
| CCN1C(=O)N(c2c(F)cc(NCCNC)cc2F)c2cc(Cl)c(C)cc2-c2cccnc21 [3-3, 13-chloro-10-(2,6-difluoro-4-{[2-(methylamino)ethyl]amino}phenyl)-8-ethyl-14-methyl-6,8,10-triazatricyclo[9.4.0.0^2,7]pentadeca-1(11),2(7),3,5,12,14-hexaen-9-one] | < 100 |
| CCN1C(=O)N(c2c(F)cc(N3CC[C@H](N)C3)cc2F)c2cc(C#N)ccc2-c2cc(Cl)cnc21 [1-241, 10-{4-[(3 S)-3-aminopyrrolidin-1-yl]-2,6-difluorophenyl}-4-chloro-8-ethyl-9-oxo-6,8,10-triazatricyclo[9.4.0.0^2,7]pentadeca-1(11),2(7),3,5,12,14-hexaene-13-carbonitrile] | < 100 |
| CCN1C(=O)N(c2ccc(NCCNC3CCOCC3)cc2)c2cc(Cl)ccc2-c2cc(Cl)cnc21 [2-13, 4,13-dichloro-8-ethyl-10-[4-({2-[(oxan-4-yl)amino]ethyl}amino)phenyl]-6,8,10-triazatricyclo[9.4.0.0^2,7]pentadeca-1(11),2(7),3,5,12,14-hexaen-9-one] | < 100 |
| CCN1C(=O)N(c2c(F)cc(NCCNCCO)cc2F)c2cc(C#N)ccc2-c2cc(C)cnc21 [1-208, 10-[2,6-difluoro-4-({2-[(2-hydroxyethyl)amino]ethyl}amino)phenyl]-8-ethyl-4-methyl-9-oxo-6,8,10-triazatricyclo[9.4.0.0^2,7]pentadeca-1(11),2(7),3,5,12,14-hexaene-13-carbonitrile] | < 100 |
| CCN1C(=O)N(c2c(F)cc(NCCNCCCC(=O)O)cc2F)c2cc(C#N)ccc2-c2cc(Cl)cnc21 [1-58, 4-({2-[(4-{4-chloro-13-cyano-8-ethyl-9-oxo-6,8,10-triazatricyclo[9.4.0.0^2,7]pentadeca-1(11),2(7),3,5,12,14-hexaen-10-yl}-3,5-difluorophenyl)amino]ethyl}amino)butanoic Acid] | < 100 |
| CNCCNc1ccc(N2C(=O)N(C)c3ncccc3-c3ccc(Cl)cc32)c(F)c1 [2-2, 13-chloro-10-(2-fluoro-4-{[2-(methylamino)ethyl]amino}phenyl)-8-methyl-6,8,10-triazatricyclo[9.4.0.0^2,7]pentadeca-1(11),2(7),3,5,12,14-hexaen-9-one] | 100 to 1000 |
| CCN1C(=O)N(c2c(F)cc(NCCNCCO)cc2F)c2ccccc2-c2cc(Cl)cnc21 [1-142, 4-chloro-10-[2,6-difluoro-4-({2-[(2-hydroxyethyl)amino]ethyl}amino)phenyl]-8-ethyl-6,8,10-triazatricyclo[9.4.0.0^2,7]pentadeca-1(11),2(7),3,5,12,14-hexaen-9-one] | < 100 |
| CCN1C(=O)N(c2c(F)cc(NCCNCCCC(=O)O)cc2F)c2cc(C(F)(F)F)ccc2-c2cc(F)cnc21 [1-69, 4-{[2-({4-[8-ethyl-4-fluoro-9-oxo-13-(trifluoromethyl)-6,8,10-triazatricyclo[9.4.0.0^2,7]pentadeca-1(11),2(7),3,5,12,14-hexaen-10-yl]-3,5-difluorophenyl}amino)ethyl]amino}butanoic acid] | < 100 |
| CCN1C(=O)N(c2c(F)cc(NCCNCC3CCC(=O)N3)cc2F)c2cc(C#N)ccc2-c2cc(Cl)cnc21 (centres unmarked) [1-176, 4-chloro-10-{2,6-difluoro-4-[(2-{[(5-oxopyrrolidin-2-yl)methyl]amino}ethyl)amino]phenyl}-8-ethyl-9-oxo-6,8,10-triazatricyclo[9.4.0.0^2,7]pentadeca-1(15),2(7),3,5,11,13-hexaene-13-carbonitrile] | < 100 |
| CCN1C(=O)N(c2c(F)cc(NCCN)cc2F)c2cc(C#N)ccc2-c2cc(Cl)cnc21 [1-126, 10-{4-[(2-aminoethyl)amino]-2,6-difluorophenyl}-4-chloro-8-ethyl-9-oxo-6,8,10-triazatricyclo[9.4.0.0^2,7]pentadeca-1(11),2(7),3,5,12,14-hexaene-13-carbonitrile] | < 100 |
| CCN1C(=O)N(c2c(F)cc(NCCNCCO)cc2F)c2cc(Cl)ccc2-c2nc(C#N)ccc21 [3-15, 13-chloro-10-[2,6-difluoro-4-({2-[(2-hydroxyethyl)amino]ethyl}amino)phenyl]-8-ethyl-9-oxo-3,8,10-triazatricyclo[9.4.0.0^2,7]pentadeca-1(11),2(7),3,5,12,14-hexaene-4-carbonitrile] | 1000 to 10000 |
| CN1C(=O)N(c2c(F)cc(NCCN[C@H]3C[C@H](O)C3)cc2F)c2cc(C#N)ccc2-c2cc(Cl)cnc21 [1-198, 4-chloro-10-{2,6-difluoro-4-[(2-{[(1r,3r)-3-hydroxycyclobutyl]amino}ethyl)amino]phenyl}-8-methyl-9-oxo-6,8,10-triazatricyclo[9.4.0.0^2,7]pentadeca-1(11),2(7),3,5,12,14-hexaene-13-carbonitrile] | < 100 |
| CCN1C(=O)N(c2c(F)cc(NCCNC)cc2F)c2cc(Cl)cc(C)c2-c2cc(Cl)cnc21 [1-36, 4,13-dichloro-10-(2,6-difluoro-4-{[2-(methylamino)ethyl]amino}phenyl)-8-ethyl-15-methyl-6,8,10-triazatricyclo[9.4.0.0^2,7]pentadeca-1(11),2(7),3,5,12,14-hexaen-9-one] | < 100 |
| CCN1C(=O)N(c2c(F)cc(NCCN)cc2F)c2cc(Cl)ccc2-c2cc(F)cnc21 [1-15, 10-{4-[(2-aminoethyl)amino]-2,6-difluorophenyl}-13-chloro-8-ethyl-4-fluoro-6,8,10-triazatricyclo[9.4.0.0^2,7]pentadeca-1(11),2(7),3,5,12,14-hexaen-9-one] | < 100 |

From patent publication US20230159532A1, “PARATHYROID HORMONE (PTH) RECEPTOR ANTAGONISTS AND USES THEREOF” (Crinetics Pharmaceuticals, Inc., priority 2021, published 2023)
